What all share (assay type): functional
In experiment [1] the test system is Pseudomonas aeruginosa. As to the kind of experiment: Antimicrobial activity against Pseudomonas aeruginosa […] assessed as zone of inhibition at 10 mg/ml by Kirby-Bauer disk diffusion method. Particulars: read-out: IZ. A general note: Agar diffusion results depend on both activity and mobility in agar.
Experiment [2] deals with Micrococcus luteus. The experiment in a line: Antimicrobial activity against Micrococcus luteus ATCC 10240 assessed as zone of inhibition at 10 mg/ml by Kirby-Bauer disk diffusion method. To be noted: read-out: IZ.
The subject of experiment [3] is Staphylococcus aureus. As to the kind of experiment: Antimicrobial activity against methicillin-resistant Staphylococcus aureus CCARM 3089 assessed as reduction in microbial growth incubated for 18 to 24 hrs by two-fold serial dilution method.
Experiment [4] concerns Staphylococcus aureus. As to the kind of experiment: Antimicrobial activity against methicillin-resistant Staphylococcus aureus CCARM 3090 assessed as reduction in microbial growth incubated for 18 to 24 hrs by two-fold serial dilution method.
The test system of experiment [5] is Staphylococcus aureus. The experiment in a line: Antimicrobial activity against methicillin-resistant Staphylococcus aureus CCARM 3095 assessed as reduction in microbial growth incubated for 18 to 24 hrs by two-fold serial dilution method.
For experiment [6], the system named is Pseudomonas aeruginosa. The experiment in a line: Antimicrobial activity against multi drug-resistant Pseudomonas aeruginosa CCARM 2095 assessed as reduction in microbial growth incubated for 18 to 24 hrs by two-fold serial dilution method.
The test system of experiment [7] is Pseudomonas aeruginosa. As to the kind of experiment: Antimicrobial activity against multi drug-resistant Pseudomonas aeruginosa CCARM 2109 assessed as reduction in microbial growth incubated for 18 to 24 hrs by two-fold serial dilution method.
The subject of experiment [8] is Enterococcus faecium. As to the kind of experiment: Antimicrobial activity against vancomycin-resistant Enterococcus faecium ATCC 51559 assessed as reduction in microbial growth incubated for 18 to 24 hrs by two-fold serial dilution method.
In experiment [9] the test system is Proteus mirabilis. As to the kind of experiment: Antimicrobial activity against Proteus mirabilis assessed as zone of inhibition after 18 hrs by disk diffusion method.
Experiment [10] relates to Escherichia coli. As to the kind of experiment: Antimicrobial activity against Escherichia coli assessed as zone of inhibition after 18 hrs by disk diffusion method.
The test system of experiment [11] is Lacticaseibacillus casei. The experiment in a line: Antibacterial activity against Lactobacillus casei NCIM-2651 assessed as reduction in microbial growth incubated for 24 hrs by broth dilution method. Particulars: NCIM-2651, 24 h. A general note: Broth dilution looks for growth in wells or tubes with falling amounts of substance.
For experiment [12], the system named is Bacillus cereus. As to the kind of experiment: Antibacterial activity against Bacillus cereus NCIM-2458 assessed as reduction in microbial growth incubated for 24 hrs by broth dilution method. Particulars: NCIM-2458, 24 h.
In experiment [13] the test system is Pseudomonas aeruginosa. The experiment in a line: Antimicrobial activity against Pseudomonas aeruginosa MTCC 1688 assessed as reduction in microbial growth after 24 to 48 hrs by broth dilution method.
The subject of experiment [14] is Escherichia coli. The experiment in a line: Antimicrobial activity against Escherichia coli MTCC 443 assessed as reduction in microbial growth after 24 to 48 hrs by broth dilution method.
Experiment [15] concerns Helicobacter pylori. As to the kind of experiment: Antimicrobial activity against Helicobacter pylori assessed as zone of inhibition.
The subject of experiment [16] is Escherichia coli. As to the kind of experiment: Antimicrobial activity against Escherichia coli ATCC 25922 assessed as reduction in microbial growth after 24 to 48 hrs by microdilution susceptibility test.
The test system of experiment [17] is Staphylococcus aureus. The experiment in a line: Antimicrobial activity against Staphylococcus aureus […] assessed as reduction in microbial growth after 24 to 48 hrs by microdilution susceptibility test.
Experiment [18] concerns Staphylococcus aureus. As to the kind of experiment: Antimicrobial activity against methicillin-resistant Staphylococcus aureus clinical isolate MRSA1 assessed as reduction in microbial growth by two-fold serial dilution method.
For experiment [19], the system named is Klebsiella pneumoniae. The experiment in a line: Antimicrobial activity against multi drug-resistant Klebsiella pneumoniae assessed as reduction in microbial growth by two-fold serial dilution method.
In experiment [20] the test system is Escherichia coli. As to the kind of experiment: Antimicrobial activity against multi drug-resistant Escherichia coli assessed as reduction in microbial growth after 24 to 48 hrs by microdilution susceptibility test.
For experiment [21], the system named is Staphylococcus aureus. The experiment in a line: Antimicrobial activity against methicillin-resistant Staphylococcus aureus assessed as reduction in microbial growth after 24 to 48 hrs by microdilution susceptibility test.
Experiment [22] concerns Staphylococcus aureus. As to the kind of experiment: Antimicrobial activity against Staphylococcus aureus NCIM-2079 assessed as reduction in microbial growth after 24 hrs by CLSI based broth dilution method. Particulars: NCIM-2079, 24 h.
For experiment [23], the system named is Proteus vulgaris. The experiment in a line: Antimicrobial activity against Proteus vulgaris NCIM-2027 assessed as reduction in microbial growth after 24 hrs by CLSI based broth dilution method. To be noted: NCIM-2027, 24 h.
For experiment [24], the system named is Bacillus cereus. The experiment in a line: Antimicrobial activity against Bacillus cereus NCIM-2156 assessed as reduction in microbial growth after 24 hrs by CLSI based broth dilution method. To be noted: NCIM-2156, 24 h.
The test system of experiment [25] is Bacillus subtilis. The experiment in a line: Antimicrobial activity against Bacillus subtilis NCIM-2063 assessed as reduction in microbial growth after 24 hrs by CLSI based broth dilution method. To be noted: NCIM-2063, 24 h.
In experiment [26] the test system is Escherichia coli. As to the kind of experiment: Antimicrobial activity against Escherichia coli NCIM-2065 assessed as reduction in microbial growth after 24 hrs by CLSI based broth dilution method. Particulars: NCIM-2065, 24 h.
Experiment [27] concerns Pseudomonas aeruginosa. As to the kind of experiment: Antimicrobial activity against Pseudomonas aeruginosa MTCC 741 assessed as reduction in microbial growth after 24 hrs by broth dilution method. To be noted: MTCC 741, 24 h.
Experiment [28] deals with Aspergillus niger. As to the kind of experiment: Antifungal activity against Aspergillus niger MTCC 282 assessed as reduction in microbial growth after 48 hrs by broth dilution method. Particulars: MTCC 282, 48 h.
The test system of experiment [29] is Bacillus cereus. The experiment in a line: Antimicrobial activity against Bacillus cereus MTCC 430 assessed as reduction in microbial growth after 24 hrs by broth dilution method. To be noted: MTCC 430, 24 h.
The subject of experiment [30] is Candida albicans. As to the kind of experiment: Antifungal activity against Candida albicans MTCC 183 assessed as reduction in microbial growth after 48 hrs by broth dilution method. Particulars: MTCC 183, 48 h.

In brackets after ≈: the same amount, converted by molar mass. Some results are limits rather than exact numbers.

For the molecule `Cc1cc(C)n(-c2nc(NCc3ccccc3)nc(N3CCCCC3)n2)n1`, the zone of inhibition at 10000 µg/mL in [1] was determined as 19 mm; in [2], 22 mm.

One may read the MIC as the least concentration at which growth counts as inhibited. In the case of `N=C(N)NCCCN(CCCNC(=N)N)c1nc(NCc2cccc3ccccc23)nc(NCc2cccc3ccccc23)n1`, the minimum inhibitory concentration (MIC) in [3] amounted to 2 µM; in experiment [4], 2 µM; in [5] it was 2 µM; in experiment [6], 8 µM; in experiment [7], 8 µM; in [8], 2 µM.

For the molecule `CCOc1ccc(/C=N/NC(=O)Cn2c3ccccc3c3nnc(SCC(=O)CN/N=C/Cc4ccc(OCC)cc4)nc32)cc1`, the “inhibition zone (IZ)” value in experiment [9] and in experiment [10] was 22 mm each time.

As for `Nc1nc(Nc2nc(-c3ccc(Cl)c(Cl)c3)cs2)nc(Sc2ccccc2)n1`, the MIC in experiment [11] and in experiment [12] was 3.12 µg/mL throughout.

In the case of `CC[C@H](C)[C@H](NC(=O)CN)C(=O)NCC(=O)N[C@@H](C)C(=O)N[C@H](C(=O)N[C@@H](CC(C)C)C(=O)N[C@@H](CCCCN)C(=O)N[C@H](C(=O)N[C@@H](CC(C)C)C(=O)N[C@H](C(=O)N[C@H](C(=O)NCC(=O)N[C@@H](CC(C)C)C(=O)N1CCC[C@H]1C(=O)N[C@@H](C)C(=O)N[C@@H](CC(C)C)C(=O)N[C@H](C(=O)N[C@@H](CO)C(=O)N[C@@H](Cc1c[nH]c2ccccc12)C(=O)N[C@H](C(=O)N[C@@H](CCCCN)C(=O)N[C@@H](CCCNC(=N)N)C(=O)N[C@@H](CCCCN)C(=O)N[C@@H](CCCNC(=N)N)C(=O)N[C@@H](CCC(N)=O)C(=O)N[C@@H](CCC(N)=O)C(N)=O)[C@@H](C)CC)[C@@H](C)CC)[C@@H](C)O)[C@@H](C)O)C(C)C)C(C)C` [MELITTIN], the minimum inhibitory concentration (MIC) in experiment [8] worked out at 2 µM.

As to `O=[N+]([O-])c1ccc(Nc2nc(Nc3ccc(S(=O)(=O)Nc4ncccn4)cc3)nc(N3CCCCC3)n2)cc1`, the results for the MIC in experiment [13] and in [14] were 50 µg/mL and 25 µg/mL, respectively.

As for `Nc1nc(-n2c(-c3ccc([N+](=O)[O-])cc3)nc3ccccc3c2=O)nnc1-c1ccccc1`, in experiment [15], the minimum inhibitory concentration (MIC) was 25 µg/mL (≈ 57.2 µM).

Regarding `CC1(C)S[C@@H]2[C@H](NC(=O)[C@H](N)c3ccccc3)C(=O)N2[C@H]1C(=O)O` [AMPICILLIN], the MIC in [13] stood at 100 µg/mL; in experiment [14], 100 µg/mL; in [16] it was 25 µg/mL; in [17], 12.5 µg/mL; in experiment [18] it was 6.25 µg/mL; in experiment [19], 12.5 µg/mL. The minimal inhibitory concentration (MIC) in [20] and in experiment [21] was more than 250 µg/mL in each case.

Regarding `N=C(N)NCCCN(CCCNC(=N)N)c1nc(NCCC(c2ccccc2)c2ccccc2)nc(NCCC(c2ccccc2)c2ccccc2)n1`, the MIC came to 2 µM in experiment [3]; 2 µM in experiment [4]; 2 µM in experiment [5]; 4 µM in experiment [6]; 4 µM in experiment [7]; 4 µM in experiment [8].

For `O=C(CN/N=C/Cc1ccccn1)CSc1nnc2c3ccccc3n(CC(=O)N/N=C/c3ccccn3)c2n1`, the “inhibition zone (IZ)” value in experiment [9] and in experiment [10] was 24 mm each time.

As to `O=C1CSC(c2ccccc2[N+](=O)[O-])N1c1nc(Nc2ccccc2[N+](=O)[O-])nc(Nc2ccccc2[N+](=O)[O-])n1` (stereo unspecified), the minimum inhibitory concentration (MIC) in experiment [22], in experiment [23], in [24], in experiment [25] and in experiment [26] was 1.95 to 15.6 µg/mL throughout.

On to `COc1nc(Sc2cccc(F)c2)nc(-c2ccc(C#N)cc2)n1`, for which the MIC in experiment [27] and in experiment [28] was 3.12 µg/mL throughout.

`COc1nc(Sc2cccc(Cl)c2)nc(-c2ccc(C#N)cc2)n1`: the values for the minimal inhibitory concentration (MIC) in experiment [29] and in experiment [30] were 6.25 µg/mL and 3.12 µg/mL, respectively.

These data come from ChEMBL document CHEMBL4321839, “Structure-activity relationships (SAR) of triazine derivatives: Promising antimicrobial agents” (Eur J Med Chem, 2020).
